The assay addresses CatB (Homo sapiens, UniProt P07858). The assay is classed as biochemical. As to conditions: pH 5.

As for CA-074 methyl ester [CatB inhibitor], the “blocking of CatB-dependent cleavage of EBOV GP” value was “effectively blocked”.

The values are drawn from paper PMC7104201 (iScience, 2020).
